# Results published in ChEMBL document CHEMBL1201862, “PubChem BioAssay data set” (2004).
# “And” between values parts separate entries of the source, which are not always exact repeats. Equal entries are not always repeated.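 Each compound was tested at five concentrations against cells in 96-well plates for 48 hours. Here, GI50 denotes the concentration required for 50% inhibition of growth.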 The source made the active and inactive calls. Rule as the data show it: active = GI50 up to about 1.1 µM and inactive = higher.
# Key:
# Assay in all cases: NCI anticancer screen, dose series, 48 h
# HT-29 = system: HT-29
# DU-145 = system: DU-145
# MDA-MB-231 = system: MDA-MB-231
# SNB-19 = system: SNB-19
# OVCAR-8 = system: OVCAR-8
# HL-60 = system: HL-60
# OVCAR-4 = system: OVCAR-4
# NCI-H23 = system: NCI-H23
# MDA-MB-435 = system: MDA-MB-435
# NCI-H522 = system: NCI-H522
# U-251 = system: U-251
# MDA-N = system: MDA-N
# NCI-H226 = system: NCI-H226
# UO-31 = system: UO-31
# UACC-62 = system: UACC-62
# BT-549 = system: BT-549
# SNB-75 = system: SNB-75
# HCT-15 = system: HCT-15
# UACC-257 = system: UACC-257
# HCT-116 = system: HCT-116
# RPMI-8226 = system: RPMI-8226
# SF-268 = system: SF-268
# OVCAR-5 = system: OVCAR-5
# A549 = system: A549
# ACHN = system: ACHN
# OVCAR-3 = system: OVCAR-3
# 786-0 = system: 786-0
# SK-MEL-5 = system: SK-MEL-5
# CAKI-1 = system: CAKI-1
# TK-10 = system: TK-10
# HCC 2998 = system: HCC 2998
# HOP-62 = system: HOP-62
# SR = system: SR
# PC-3 = system: PC-3
# IGROV-1 = system: IGROV-1
# LOX IMVI = system: LOX IMVI
# MOLT-4 = system: MOLT-4
# SK-MEL-28 = system: SK-MEL-28
# SN12C = system: SN12C
# NCI-H460 = system: NCI-H460
# SK-MEL-2 = system: SK-MEL-2
# SW-620 = system: SW-620
# T47D = system: T47D
# CCRF-CEM = system: CCRF-CEM
# M14 = system: M14
# A498 = system: A498
# K562 = system: K562
# Malme-3M = system: Malme-3M
# EKVX = system: EKVX
# RXF 393 = system: RXF 393
# COLO 205 = system: COLO 205
# SK-OV-3 = system: SK-OV-3
# NCI/ADR-RES = system: NCI/ADR-RES
# HOP-92 = system: HOP-92
structure (smiles),measurement,setting,value
O=C(/N=N/c1cccc(Cl)c1)NNc1cccc(Cl)c1,GI50,HT-29,22.9 µM (inactive)
same,GI50,DU-145,17.5 µM (inactive)
same,GI50,MDA-MB-231,23.2 µM (inactive)
same,GI50,SNB-19,20.8 µM (inactive)
same,GI50,OVCAR-8,17.3 µM (inactive)
same,GI50,HL-60,16.7 µM (inactive)
same,GI50,OVCAR-4,10.3 µM (inactive)
same,GI50,NCI-H23,26.2 µM (inactive)
same,GI50,MDA-MB-435,11.5 µM (inactive)
same,GI50,NCI-H522,21.9 µM (inactive)
same,GI50,U-251,18.7 µM (inactive)
same,GI50,MDA-N,13.1 µM (inactive)
same,GI50,NCI-H226,23.9 µM (inactive)
same,GI50,UO-31,8.49 µM (inactive)
same,GI50,UACC-62,9.25 µM (inactive)
same,GI50,BT-549,> 10 µM (inactive)
same,GI50,SNB-75,28.5 µM (inactive)
same,GI50,HCT-15,17.6 µM
same,GI50,UACC-257,19.1 µM (inactive)
same,GI50,HCT-116,8.22 µM (inactive)
same,GI50,RPMI-8226,8.36 µM (inactive)
same,GI50,SF-268,24.7 µM (inactive)
same,GI50,OVCAR-5,15.8 µM (inactive)
same,GI50,A549,24.5 µM (inactive)
same,GI50,ACHN,9.25 µM (inactive)
same,GI50,OVCAR-3,15 µM (inactive)
same,GI50,786-0,15.1 µM (inactive)
same,GI50,SK-MEL-5,17.9 µM (inactive)
same,GI50,CAKI-1,18.1 µM (inactive)
same,GI50,TK-10,25.1 µM (inactive)
same,GI50,HCC 2998,14.7 µM (inactive)
same,GI50,HOP-62,5.3 µM (inactive)
same,GI50,SR,13.8 µM (inactive)
same,GI50,PC-3,8.97 µM (inactive)
same,GI50,IGROV-1,17.5 µM (inactive)
same,GI50,LOX IMVI,12.9 µM (inactive)
same,GI50,MOLT-4,10.9 µM (inactive)
same,GI50,SK-MEL-28,20.1 µM (inactive)
same,GI50,SN12C,11.7 µM (inactive)
same,GI50,NCI-H460,15.5 µM (inactive)
same,GI50,SK-MEL-2,11.5 µM (inactive)
same,GI50,SW-620,16.2 µM (inactive)
same,GI50,T47D,10.8 µM (inactive)
same,GI50,CCRF-CEM,18.2 µM (inactive)
same,GI50,M14,14.4 µM (inactive)
same,GI50,A498,17.7 µM (inactive)
same,GI50,K562,10.6 µM (inactive)
same,GI50,Malme-3M,16.7 µM (inactive)
C=CCN1C(=O)/C(=C/c2ccc(OC)cc2)N=C1SC1OC(COC(C)=O)C(OC(C)=O)C(OC(C)=O)C1OC(C)=O (stereo not drawn),GI50,EKVX,28.2 µM (inactive) and 21.4 µM (inactive)
same,GI50,HT-29,8.45 µM (inactive)
same,GI50,DU-145,23.4 µM (inactive) and 45.3 µM (inactive)
same,GI50,RXF 393,27 µM (inactive) and 25.3 µM (inactive)
same,GI50,SNB-19,32 µM (inactive)
same,GI50,COLO 205,67.8 µM (inactive) and 41.3 µM (inactive)
same,GI50,NCI-H23,33.5 µM (inactive) and 36.9 µM (inactive)
same,GI50,MDA-N,37.8 µM (inactive)
same,GI50,NCI-H226,21.6 µM (inactive) and 32.1 µM (inactive)
same,GI50,BT-549,27.2 µM (inactive) and 19.8 µM (inactive)
same,GI50,SNB-75,19.1 µM (inactive) and 35.5 µM (inactive)
same,GI50,HCT-15,36.4 µM and 43.7 µM
same,GI50,UACC-257,29.4 µM (inactive) and 20.7 µM (inactive)
same,GI50,HCT-116,30.8 µM (inactive)
same,GI50,RPMI-8226,32.8 µM (inactive) and 43.3 µM (inactive)
same,GI50,SK-OV-3,18.1 µM (inactive) and 34.7 µM (inactive)
same,GI50,A549,34.8 µM (inactive)
same,GI50,786-0,17.2 µM (inactive)
same,GI50,SK-MEL-5,19.5 µM (inactive) and 29 µM (inactive)
same,GI50,NCI/ADR-RES,30.8 µM (inactive) and 48.8 µM (inactive)
same,GI50,HCC 2998,39.7 µM (inactive) and 64.3 µM (inactive)
same,GI50,SR,34.5 µM (inactive) and 25.9 µM (inactive)
same,GI50,SN12C,29.6 µM (inactive)
same,GI50,SW-620,60 µM (inactive) and 36.9 µM (inactive)
same,GI50,T47D,23.8 µM (inactive)
same,GI50,HOP-92,12.7 µM (inactive) and 17.3 µM (inactive)
same,GI50,M14,39.4 µM (inactive)
same,GI50,A498,31.9 µM (inactive) and 32.4 µM (inactive)
same,GI50,K562,36.7 µM (inactive) and 24.5 µM (inactive)
same,GI50,Malme-3M,44.2 µM (inactive) and 57.5 µM (inactive)
